# Source: patent US20220202912A1, “Polypeptides in Preparation of Drugs for Treatment or Prevention of Rheumatoid Arthritis” (priority 2011, published 2022)
# Where no end group is shown, it is not given here.
# Legend:
# IL-6 [1] = test: immunohistochemistry of IL-6 in spleen and thymus, CIA transgenic TNF-luc mice; type: in vivo, BALB/c transgenic TNF-luc mice; details: Adalimumab 8 mg/kg, mPEG-SC20k-HM-3 20 mg/kg
# Method: Determining criteria: The experimental results are determined based on the proportion of positive cells in all tissue cells and the staining intensity of positive cells: A: scoring is performed based on the number of chromogenic cells, 1 point is given when the proportion of the number of positive cells is less than ⅓, 2 points are given when the proportion of the number of positive cells is ⅓-⅔, and 3 points are given when the proportion of the number of positive cells is greater than or equal to ⅔. B: Based on the color depth of cells, 0 point is given when no cells have positive reaction, 1 point is given when cells are light yellow, 2 points are given when the cells are light brown, and 3 points are given when the cells are dark brown. Point product=A×B. The result is expressed in point product.
# TNF-α [2] = test: in vivo imaging of TNF-α expression, CIA transgenic TNF-luc mice; parameters: species or system BALB/c transgenic TNF-luc mice; details: day 36; Adalimumab 8 mg/kg, mPEG-SC20k-HM-3 20 mg/kg
# Method: […] After the mice are lightly anesthetized with ether, the mice are fixed within 5-20 min and put into an in vivo imager, the imager is covered with an instrument lid, on-fluro and om-photo names in the desktop imaging interface of the computer are clicked, and the expose button is clicked to complete the fluorescence and white light photos of mice in vivo imaging. The specific imaging principle, operation steps, image processing and output are the same as those in the previous embodiment.
# TNF-α [3] = test: in vivo imaging of TNF-α expression, AIA transgenic TNF-luc mice; parameters: species or system BALB/c transgenic TNF-luc mice; details: Adalimumab 8 mg/kg; for Fluorescence intensity (in vivo imaging): mPEG-SC20k-HM-3 20 mg/kg sc; for in vivo fluorescence densities: mPEG-SC20k-HM-3 20 mg/kg
# Method: […] After the mice are lightly anesthetized with ether, the mice are fixed within 5-20 min and put into an in vivo imager, the imager is covered with an instrument lid, on-fluro and om-photo names in the desktop imaging interface of the computer are clicked, and the expose button is clicked to complete the fluorescence and white light photos of mice in vivo imaging.
# (1) Imaging principle: Fluorescein substrate is injected intraperitoneally, and binds to luciferase carried on TNF-α protein to catalyze luminescence. Through the Luciferase fluorescent reporter group on TNF, the change of the fluorescence area in mice is observed, and the expression of TNF-α is evaluated, so as to evaluate the impact of mPEG-SC20k-HM-3 on the expression of TNF-α.
# (2) Operation steps: Start the Carestreama in vivo imager, open the MI software, click the Capture button, and set photographing conditions. In the on-flour fluorescence mode, set the parameters X Binning. 2 pixels, Y Binning. 2 pixels; Illumination Source: Multi-wavelength; f-stop: 2.50; field of view (FOV) (mm): 120; focal plane (mm): Tray. Excitation filter: 430 nm, emission filter: 535 nm; exposure time: 30s. Click the Expose button to photograph fluorescence. Under the om-photo name, set the parameters X Binning. 0 pixels, Y Binning. 0 pixels; Illumination Source: None; f-stop: 2.50; FOV (mm): 120; focal plane (mm): Tray. Excitation filter: 0 nm, emission filter: 0 nm; exposure time: 0.175 s. Click the Expose button to photograph white light.
# (3) Image processing and output: Analyze and adjust photos of fluorescence function imaging and white light structure imaging to the best, and the FOV is consistent. Click Window→Tie, Display→Invert, Image Display→overlay→Transparency for image stacking. In the image output process, in a navigation panel, click Annotation→Width/Heigh→Scale Analysis Image for setting, click Add Annotation Bar for adding a title, click Add Intensity Scale for adding a ruler, and set Horizontal, Size, Style, Number of Significant Dig, and Horizontal/Vertical Length. Output a picture in Tiff format.
# IL-6 [4] = test: immunohistochemistry of IL-6 in spleen and thymus, AIA transgenic TNF-luc mice; type: in vivo, BALB/c transgenic TNF-luc mice; details: Adalimumab 8 mg/kg, mPEG-SC20k-HM-3 20 mg/kg
# Method: (§1) Changes of expression of TNF-α and IL-6 are analyzed by HE staining and immunohistochemistry in the ankle joint, spleen and thymus of the mice. Observation and photographing are performed under the FOVs of ×200 and ×400 times respectively, 5 FOVs are taken randomly for each picture, and data statistics is performed.
# TNF-α [5] = test: immunohistochemistry of TNF-α in ankle joints, AIA transgenic TNF-luc mice; type: in vivo, BALB/c transgenic TNF-luc mice; details: Adalimumab 8 mg/kg, mPEG-SC20k-HM-3 20 mg/kg
# Method: as §1
Substance,immunohistochemical score of IL-6 in spleen (IL-6 [1]),immunohistochemical score of IL-6 in thymus (IL-6 [1]),in vivo fluorescence densities (TNF-α [2]),Fluorescence intensity (in vivo imaging) (TNF-α [3]; 17 d (treatment starts)),Fluorescence intensity (in vivo imaging) (TNF-α [3]; 32 d),"in vivo fluorescence densities (TNF-α [3]; day 17, as printed in text)","in vivo fluorescence densities (TNF-α [3]; day 32, as printed in text)",immunohistochemical score of IL-6 in spleen (IL-6 [4]),immunohistochemical score of IL-6 in thymus (IL-6 [4]),immunohistochemical score of TNF-α in ankle joint cavity (TNF-α [5])
Adalimumab [reference compound],0.008±0.003,0.030±0.031,20.76±4.43 10^5,46.746 ± 3.457 ×10^5,26.446 ± 2.659 ×10^5,46.75±3.46 10^6,26.45±2.66 10^6,0.013±0.010,0.039±0.041,0.246±0.110
"mPEG-SC20k-Ile-Val-Arg-Arg-Ala-Asp-Arg-Ala-Ala-Val-Pro-Gly-Gly-Gly-Gly-Arg-Gly-Asp ({mPEG‑SC 20k}-IVRRADRAAVPGGGGRGD) [polypeptide III, No. 3]",0.017±0.009,0.040±0.021,19.02±9.69 10^5,41.604 ± 6.080 ×10^5,31.956 ± 1.170 ×10^5,41.6±1.68 10^6,31.96±1.17 10^6,0.006±0.002,0.068±0.033,0.149±0.047
